Data set [1] relates to U937 cells. In words: Antineoplastic activity, U937 cells injected in scid/scid mice, treatment from day 1. In kind it is in vivo. As to conditions: 100 mg/kg; six mice. The method, then: Ten million U937 cells were subcutaneously injected into scid/scid mice. One injection was carried out per each of the 6 mice tested per set. The excipient or the compounds tested were administered intraperitoneally on day 1, i.e., the day of U937 cell line inoculation, of the experiment. The excipients or compounds were administered once daily. The tumor sizes were measured on day 5, day 8, day 12, day 14 and day 19 after the injection.

Data set [2] deals with U937 cells. In words: Curative effects on palpable tumors, U937 cells in scid/scid mice. In kind it is in vivo. The following applies: daily administration once tumors palpable (4 mm^3). The method, then:
In this series of experiments, effects of various compounds of the present invention on tumor development were tested using two protocols. The first protocol is directed to the testing of curative effects of these compounds in different cell lines. In this protocol, cancerous cells are inoculated to the animals, and the inoculated animals were left without any further treatment until the development of tumors. As soon as the tumors became palable (4 mm^3), the compounds of this invention were administered daily to the animals. Two different cell lines, i.e., U937 and MDA-MB-231 (breast cancer line), were used for this protocol to inoculate scid/scid mice.

For the next data set, the system named is U937. In kind it is in vivo. As to conditions: treatment from day 1, cells inoculated after more than 24 hours, daily administration. Here is the method: The second protocol was designed to test the preventive effects of the compounds of this invention on tumorigenesis. In this protocol, the animals have been treated with various compounds of the present invention on day 1. After more than 24 hours, tumoral cells were inoculated. The administration of the compounds of this invention was maintained daily. The cell line used for this test was U937.

Data set [3] deals with blastic cells from AML patients. In words: Inhibition of viability of fresh leukemic cells (trypan blue exclusion). Type of data set: cell-based, human. As to conditions: Homo sapiens, day 3; for cytotoxicity at 10 µM: 10^-5 M; for cytotoxicity at 1 µM: 10^-6 M. Here is the method: Samples for AML 1 through 5, AML 1 being the least and AML 5 being the most differentiated, were obtained. […] Cells were incubated with or without […] anti-histamine derivatives. Polaramine was included as a negative control. Cell counts were assessed by trypan blue exclusion test at day 3 after the incubation. Morphological analysis was performed using Wright-Giemsa staining on cytocentrifuge preparations. The results were expressed as % inhibition of growth as compared to negative control.

Data set [4] concerns K562, U937, MDA-DB231, BT20 and MCF7 cell lines. In words: Cytotoxic effects in multi-well plate, 6 days, ATP level (CellTiter-Glo). The following applies: 2x10^-9 M to 2x10^-4 M. Here is the method: In order to test the cytotoxic effects of various compounds, a test was developed in a multi-well plate. Two leukemic cell lines, namely K562 and U937, and three breast cancer cell lines, namely MDA-DB231, BT20 and MCF7 were used for this test.
The cells were seeded at low density and were left for 24 hours to recover and reach a new logarithmic phase of growth. Various concentrations of the compounds being tested, ranging from 2×10^−9 M to 2×10^−4 M, were added in triplicate. The mixture was incubated for 6 days, during which approximately 4 doublings of the cell population occurred, to allow the cells to reach subconfluence.
The viability of the cultured cells after the treatment by the compounds was determined by quantifying the level of ATP since the level of ATP is directly proportional to the number of viable cells present in the culture. The ATP level was quantified by using CellTiter-Glo™ (Promega) luminescent test for cell viability.
Background: ATP-based viability assays read luminescence as a measure of living cells.

Data set [5] deals with K562, U937, Jurkat, T47-D, MCF7, BT20 and 184B5 cell lines. The data set is described as follows: Cytotoxicity in malignant and immortalized cell lines (manual counting, Alamar assay). The following applies: all of the cell lines tested. In kind it is cell-based. Here is the method:
These four compounds were added at different concentrations to cultures of various malignant cell lines and normal cells. The cell lines used for these tests were the following:
All leukemic cell lines were grown and used in logarithmic phase. After one day of treatment, the cells were isolated, counted and diluted in a regular growth medium to provide the cell density of about 75×10^3 cells/ml for reading on plates at 48 hours after the treatment, and […] for reading at 144 hours after the treatment.
Several dilutions of each compound tested were added to the wells (12 wells per plate, TPP), and 1 ml of cells from the parent solution was added per well after a line had been completed. The dilutions were made using the culture medium, and following dilutions were tested: control, which contained no compound of this invention; 1:100; 1:1,000; 1:2,000; 1:5,000; and 1:10,000. The starting concentrations for these dilutions were: 50 mg/ml for compound A; 10 mg/ml for compound B; 25 mg/ml for compound C; and 5 mg/ml for compound D. The results were analyzed by manual counting and Alamar reduced assay.
The cells were grown on their respective propagation medium and seeded 24 hours before the compounds are added. The cells were trypsinized, and 50,000 cells/well and 10,000 cells/well were seeded in order to read the plates at 48 hours and 144 hours after being treated by the compounds, respectively.
On the day of the treatment, the medium was replaced by 10 ml each of series dilution of the compounds, consisting of: control, which contained no compound of this invention; 1:100 dilution; 1:1,000 dilution; 1:2,000 dilution; and 1:5,000 dilution. The starting concentrations for these dilutions were: 50 mg/ml for compound A; 10 mg/ml for compound B; 25 mg/ml for compound C; and 5 mg/ml for compound D. The dilution was made using the growth medium.
A tested compound is regarded as being active in cytotoxicity where the percentage of surviving cells after the treatment with the compound is less than 30%.

The subject of another data set is TCTP. The data set is described as follows: TCTP expression in treated U937 cells (western blot). Type of data set: cell-based. As to conditions: 24 hours, various dilutions. The method, then: U937 cells were treated with various dilutions of hydroxyzine, brompheniramine and promethazine for 24 hours as denoted in FIG. 23A. Starting concentrations were: 50 mg/ml for […] (“A”); 10 mg/ml for brompheniramine (“B”); and 25 mg/ml for promethazine (“C”). The proteins were isolated from these cells and loaded onto a gel for western blot analysis. A specific anti-TCTP (anti-HRF) antibody was used to visualize the location of TCTP. […] The level of actin in equal loading of extract was visualized by antiactin antibody (Santa Cruz Biotechnology). No substantial difference between the level of actin in treated and untreated cells was observed.
Background: Immunoblotting shows a protein as a band on a membrane.

The subject of data set [6] is Poly ADP-Ribose Polymerase (PARP). In words: PARP cleavage in treated U937 cells (western blot). In kind it is cell-based. The following applies: 24 hours. Here is the method: U937 cells were treated with various concentrations of hydroxyzine and promethazine for 24 hours. The proteins were isolated from these cells and loaded onto a gel for a western blot analysis. A specific anti-PARP antibody was used to visualize the location of PARP.

Setting [7] is: 72 h, MEAN over AML patients, read-out: In Vitro Percent Inhibition of Viability, MEAN.
Where [8] appears, read: 72 h, patient ID 3, FAB AML2, read-out: In Vitro Percent Inhibition of Viability.
Setting [9] is: 72 h, patient ID 4, FAB AML2, read-out: In Vitro Percent Inhibition of Viability.
Where [10] appears, read: 72 h, patient ID 5, FAB AML2, read-out: In Vitro Percent Inhibition of Viability.
Setting [11] is: 72 h, patient ID 10, FAB AML4, read-out: In Vitro Percent Inhibition of Viability.
[12] abbreviates: 72 h, patient ID 11, FAB AML5, read-out: In Vitro Percent Inhibition of Viability.
The mark [13] stands for this setting: 72 h, patient ID 13, FAB AML5, read-out: In Vitro Percent Inhibition of Viability.
The mark [14] stands for this setting: 72 h, patient ID 14, FAB AML5, read-out: In Vitro Percent Inhibition of Viability.
Setting [15] is: 72 h, patient ID 15, FAB AML5, read-out: In Vitro Percent Inhibition of Viability.
The mark [16] stands for this setting: AML1, 72 h, patient ID 1, FAB AML1, read-out: In Vitro Percent Inhibition of Viability.
[17] abbreviates: AML1, 72 h, patient ID 2, FAB AML1, read-out: In Vitro Percent Inhibition of Viability.
The mark [18] stands for this setting: AML3, 72 h, patient ID 6, FAB AML3, read-out: In Vitro Percent Inhibition of Viability.
Setting [19] is: AML3, 72 h, patient ID 7, FAB AML3, read-out: In Vitro Percent Inhibition of Viability.
Where [20] appears, read: AML3, 72 h, patient ID 8, FAB AML3, read-out: In Vitro Percent Inhibition of Viability.
The mark [21] stands for this setting: AML3, 72 h, patient ID 9, FAB AML3, read-out: In Vitro Percent Inhibition of Viability.

Where a name gives a salt, the structure may show the parent alone. Read-outs that look alike come from different tables or passages of the source.

Take `CC1=C(/C=C/C(C)=C/C=C/C(C)=C/C(=O)O)C(C)(C)CCC1` [ATRA, All Trans Retinoic Acid]: the “mice that developed a tumor” value in the data set on U937 cells [1] is “all six”.
`CN(C)CCCN1c2ccccc2Sc2ccc(Cl)cc21` [S59, chlorpromazine]: in the data set with U937 cells [2], the tumor growth result is “delay in the tumor growth”. Also, the “tumor growth compared to the negative control” value with U937 is “decrease in tumor growth”. Further, the cytotoxicity at 10 µM in data set [3] (setting [7]) turned out to be 37%; in data set [3] (setting [8]), 48%; in data set [3] (setting [9]), 22%; in data set [3] (setting [10]), 37%; in data set [3] (setting [11]), 51%; in data set [3] (setting [12]), 25%. For the same molecule, the cytotoxicity at 10 µM in data set [3] (72 h, patient ID 12, FAB AML5, read-out: In Vitro Percent Inhibition of Viability) was found to be 51%; in data set [3] (setting [13]), 31%; in data set [3] (setting [14]), 40%; in data set [3] (setting [15]) it was 20%; in data set [3] (setting [16]), 8%; in data set [3] (setting [17]), 35%. Further, the cytotoxicity at 10 µM in data set [3] (setting [18]) came out at 24%; in data set [3] (setting [19]), 53%; in data set [3] (setting [20]), 44%; in data set [3] (setting [21]), 71%. The cytotoxicity at 1 µM worked out at 15% in data set [3] (setting [7]); 7% in data set [3] (setting [8]); 9% in data set [3] (setting [9]); 0% in data set [3] (setting [10]); 33% in data set [3] (setting [11]); 32% in data set [3] (setting [12]). Also, the cytotoxicity at 1 µM worked out at 13% in data set [3] (setting [13]); 38% in data set [3] (setting [14]); 17% in data set [3] (setting [15]); 8% in data set [3] (setting [16]); 5% in data set [3] (setting [17]); 13% in data set [3] (setting [18]). Further, the cytotoxicity at 1 µM is 3% in data set [3] (setting [19]), 14% in data set [3] (setting [20]) and 11% in data set [3] (setting [21]). For the same molecule, the cytotoxic effect group result in data set [4] was “I”.
Turning to `CN(C)CCC(c1ccc(Br)cc1)c1ccccn1` (centres unmarked) [brompheniramine, brompheniramine maleate], the cytotoxic activity entry in data set [5] is recorded as “little or no cytotoxic activity”. Moreover, the “expression of TCTP” value with TCTP was “little effect”.
Regarding `CN[C@@H]1C[C@H]2O[C@@](C)([C@@H]1OC)n1c3ccccc3c3c4c(c5c6ccccc6n2c5c31)C(=O)NC4` [staurosporine], the “PARP cleavage (induction of apoptosis)” value in data set [6] is given as “cleave PARP”.

Values taken from patent US20040072824A1, “Methods and compositions for the treatment of cancer” (priority 2001, published 2004).
